Here are results for four molecules from paper PMC9410882, “Identification of a novel deFADding activity in human, yeast and bacterial 5′ to 3′ exoribonucleases” (Nucleic Acids Research, 2022).

One series deals with T1, Xrn1 (Kl Xrn1) (Kluyveromyces lactis, UniProt Q6CJ09).
T1 construct: gene KLLA0_F22385g; recombinant, Ni-NTA purified
Put plainly: inhibition of decay of […]-labelled capped RNA, gel. Format: biochemical. The settings on record: FAD-capped or NAD-capped RNA as substrate.

A further series addresses T2, RNase AM (yciV) (Escherichia coli, UniProt P77766).
T2 construct: gene rnm; full-length, His-tagged, expressed in E. coli BL21 (DE3) Rosetta with 2,2'-bipyridyl and MnSO4; Ni-NTA and gel filtration
T2 sequence (P77766 1-293): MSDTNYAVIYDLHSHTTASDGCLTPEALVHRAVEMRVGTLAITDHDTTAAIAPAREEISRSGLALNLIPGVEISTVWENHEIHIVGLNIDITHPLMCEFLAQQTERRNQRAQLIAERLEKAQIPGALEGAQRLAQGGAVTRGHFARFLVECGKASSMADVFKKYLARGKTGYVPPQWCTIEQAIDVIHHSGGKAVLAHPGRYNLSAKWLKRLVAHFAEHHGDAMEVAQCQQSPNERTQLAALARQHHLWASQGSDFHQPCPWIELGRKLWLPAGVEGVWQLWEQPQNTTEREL
Put plainly: thermal shift assay. It is filed as binding. The settings on record: Mn2+-loaded enzyme; data not shown.

The target in another series is T3, Kl Xrn1 (Kluyveromyces lactis, UniProt Q6CJ09 1-1245).
T3 sequence: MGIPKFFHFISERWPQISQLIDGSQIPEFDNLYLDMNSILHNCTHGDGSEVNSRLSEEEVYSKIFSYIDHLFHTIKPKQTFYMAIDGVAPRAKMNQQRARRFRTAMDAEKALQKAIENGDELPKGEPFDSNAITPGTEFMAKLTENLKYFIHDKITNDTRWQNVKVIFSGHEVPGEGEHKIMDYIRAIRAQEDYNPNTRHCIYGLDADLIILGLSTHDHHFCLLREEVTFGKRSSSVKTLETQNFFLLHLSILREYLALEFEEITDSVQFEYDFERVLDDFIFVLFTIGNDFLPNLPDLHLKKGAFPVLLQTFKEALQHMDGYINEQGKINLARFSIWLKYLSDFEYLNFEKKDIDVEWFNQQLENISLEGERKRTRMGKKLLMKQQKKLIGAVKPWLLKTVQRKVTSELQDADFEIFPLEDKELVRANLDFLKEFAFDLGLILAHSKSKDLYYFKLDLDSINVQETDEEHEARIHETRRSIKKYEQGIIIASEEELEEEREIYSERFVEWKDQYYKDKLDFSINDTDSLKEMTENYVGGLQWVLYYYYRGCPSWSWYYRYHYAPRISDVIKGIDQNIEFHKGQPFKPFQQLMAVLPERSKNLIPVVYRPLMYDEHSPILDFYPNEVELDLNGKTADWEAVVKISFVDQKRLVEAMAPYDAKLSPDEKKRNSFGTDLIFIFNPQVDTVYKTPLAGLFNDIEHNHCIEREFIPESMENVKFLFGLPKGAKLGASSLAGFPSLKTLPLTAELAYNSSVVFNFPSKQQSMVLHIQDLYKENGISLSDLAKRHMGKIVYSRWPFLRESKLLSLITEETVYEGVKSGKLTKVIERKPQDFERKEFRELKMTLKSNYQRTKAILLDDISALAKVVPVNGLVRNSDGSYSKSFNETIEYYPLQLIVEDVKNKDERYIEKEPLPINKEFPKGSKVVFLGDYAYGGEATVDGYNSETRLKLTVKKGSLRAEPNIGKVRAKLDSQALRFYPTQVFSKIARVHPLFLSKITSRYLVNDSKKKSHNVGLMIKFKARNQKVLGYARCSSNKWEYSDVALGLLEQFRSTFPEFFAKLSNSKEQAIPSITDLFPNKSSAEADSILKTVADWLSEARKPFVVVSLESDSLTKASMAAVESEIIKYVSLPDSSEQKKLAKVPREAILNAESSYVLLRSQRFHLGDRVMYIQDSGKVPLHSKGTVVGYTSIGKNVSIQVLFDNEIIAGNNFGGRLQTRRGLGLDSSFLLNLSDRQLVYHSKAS
Description: EMSA; stable complex, minimally competed by total yeast RNA; EMSA: 10 mM Tris-HCl pH 7.5, 150 mM KCl, 1.5 mM MgCl2, 0.5 mM DTT, on ice 30 min, 5 pmol RNA with 2.5-7.5 pmol Xrn1, 6% gel in 0.5x TBE; FcRAP: 1x lysis buffer, 4 C, 90 min. Particulars: protein: recombinant; tags: C-terminal 6xHis; label: 32P uniform; single strand.

`Cc1cc2nc3c(=O)[nH]c(=O)nc-3n(C[C@H](O)[C@H](O)[C@H](O)COP(=O)(O)OP(=O)(O)OC[C@H]3O[C@@H](n4cnc5c(N)ncnc54)[C@H](O)[C@@H]3OP(=O)(O)O)c2cc1C` [FAD3′P]: the inhibition result at Xrn1 (Kl Xrn1) was “the effect was more pronounced with the FAD-capped RNA mimic, FAD3′P”.
For `Cc1cc2nc3c(=O)[nH]c(=O)nc-3n(C[C@H](O)[C@H](O)[C@H](O)COP(=O)(O)OP(=O)(O)OC[C@H]3O[C@@H](n4cnc5c(N)ncnc54)[C@H](O)[C@@H]3O)c2cc1C` [FAD], the thermal shift result on RNase AM (yciV) is given as “competent for binding FAD (as determined by thermal shift assay; data not shown)”. Also, at Xrn1 (Kl Xrn1) (free FAD), the inhibition result is “inhibition was nevertheless detected when using higher concentration of FAD”.
For AGUUGGUGGUUGUUGUGUGUUUGUGGUUGGUUUGUUUGGC (ssRNA, 5' FAD cap) [FAD-capped RNA (FAD-40)], the binding result with Kl Xrn1 is “binds”.
On the same count and under the same terms, under AGUUGGUGGUUGUUGUGUGUUUGUGGUUGGUUUGUUUGGC (ssRNA, 5' NAD cap) [NAD-capped RNA (NAD-40)] stands “binds”.
